Counter-ions that a name gives are not always drawn.
Assays:
DDR1 protein = target: T1, DDR1 protein (Homo sapiens, UniProt Q08345); assay: Evaluation of DDR1 kinase inhibitory activity (LANCE Ultra TR-FRET); format: biochemical; conditions: DDR1 protein 0.5 nM, ATP 100 μM, 2 hours at room temperature; read-out: DDR-1 IC50
T1 construct: purchased Carna Biosciences 08-113
Procedure: The test was performed in duplicate.

[1] = target: T2, DDR1 kinase in DDR1-expressing U2OS cells (Homo sapiens, UniProt Q08345); assay: DDR1 kinase inhibitory effect in DDR1-expressing U2OS cells (PathHunter, type I collagen stimulation); format: cell-based; conditions: type I collagen 50 μg/mL, 10% FBS, read-out: DDR-1 IC50
T2 construct: host or cells: U2OS
Procedure: Test compounds in DMSO were prepared at 10 mM and diluted with DMSO to final concentrations of 1000, 100, 10, 1, and 0.1 μM. These solutions were diluted further with E-MEM medium (Fujifilm Wako Pure Chemical Industries, 051-07615) containing 10% fetal bovine serum (FBS, Gibco, 10270106) to 60,000, 6,000, 600, 60, 6, and 0.6 nM to obtain test sample solutions.
DDR1-expressing U2OS cells (DiscoverX, 93-0894C3) suspended at 2.5×10^5 cells/mL in 10% FBS+E-MEM medium were seeded in 384-well plates (DiscoverX, 92-0013) in 20 μL portions and cultured overnight at 37° C. and 5% CO2.
The next day, the test sample solutions as prepared were added at 5 μL/well to final concentrations of 10,000, 1,000, 100, 10, 1, and 0.1 nM. After incubation at 37° C. and 5% CO2 for 1 hour, type I collagen (Nitta Gelatin, 631-00771) was added at 5 μL/well to a final concentration of 50 μg/mL, and cultured overnight at 37° C. and 5% CO2.
The next day, the plate was left at room temperature for 1 hour, after which 5 μL/well of detection solution was added according to the instruction manual for the PathHunter (registered trademark) Detection Kit (DiscoverX, 93-0001). […] The test was performed in duplicate.

T2 sequence (Q08345 19-913): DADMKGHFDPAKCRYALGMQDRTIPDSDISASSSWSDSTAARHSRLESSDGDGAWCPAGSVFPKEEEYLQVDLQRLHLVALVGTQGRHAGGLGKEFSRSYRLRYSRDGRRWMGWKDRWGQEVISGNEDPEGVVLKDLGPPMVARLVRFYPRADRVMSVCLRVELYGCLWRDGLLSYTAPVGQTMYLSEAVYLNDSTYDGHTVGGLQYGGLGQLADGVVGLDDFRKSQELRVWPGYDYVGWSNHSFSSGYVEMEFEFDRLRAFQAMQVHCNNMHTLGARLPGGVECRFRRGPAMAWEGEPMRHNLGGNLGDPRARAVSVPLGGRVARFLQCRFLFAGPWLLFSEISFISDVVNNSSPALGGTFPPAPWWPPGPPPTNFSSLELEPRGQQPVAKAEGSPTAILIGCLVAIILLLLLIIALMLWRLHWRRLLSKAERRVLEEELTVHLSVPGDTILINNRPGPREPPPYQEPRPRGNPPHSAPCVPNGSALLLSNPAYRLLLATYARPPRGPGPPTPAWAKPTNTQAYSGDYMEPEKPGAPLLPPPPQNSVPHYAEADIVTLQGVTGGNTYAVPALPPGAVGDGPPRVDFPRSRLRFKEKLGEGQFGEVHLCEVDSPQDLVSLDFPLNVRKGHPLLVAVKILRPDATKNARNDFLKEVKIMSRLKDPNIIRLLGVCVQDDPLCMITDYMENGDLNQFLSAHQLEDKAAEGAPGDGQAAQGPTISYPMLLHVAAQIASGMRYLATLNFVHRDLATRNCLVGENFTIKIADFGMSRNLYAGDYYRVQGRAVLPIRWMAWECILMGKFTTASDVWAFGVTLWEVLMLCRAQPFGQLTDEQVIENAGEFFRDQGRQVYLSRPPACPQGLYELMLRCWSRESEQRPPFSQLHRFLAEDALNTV
T1 sequence (Q08345 19-876 isoform Q08345-2 limits assumed): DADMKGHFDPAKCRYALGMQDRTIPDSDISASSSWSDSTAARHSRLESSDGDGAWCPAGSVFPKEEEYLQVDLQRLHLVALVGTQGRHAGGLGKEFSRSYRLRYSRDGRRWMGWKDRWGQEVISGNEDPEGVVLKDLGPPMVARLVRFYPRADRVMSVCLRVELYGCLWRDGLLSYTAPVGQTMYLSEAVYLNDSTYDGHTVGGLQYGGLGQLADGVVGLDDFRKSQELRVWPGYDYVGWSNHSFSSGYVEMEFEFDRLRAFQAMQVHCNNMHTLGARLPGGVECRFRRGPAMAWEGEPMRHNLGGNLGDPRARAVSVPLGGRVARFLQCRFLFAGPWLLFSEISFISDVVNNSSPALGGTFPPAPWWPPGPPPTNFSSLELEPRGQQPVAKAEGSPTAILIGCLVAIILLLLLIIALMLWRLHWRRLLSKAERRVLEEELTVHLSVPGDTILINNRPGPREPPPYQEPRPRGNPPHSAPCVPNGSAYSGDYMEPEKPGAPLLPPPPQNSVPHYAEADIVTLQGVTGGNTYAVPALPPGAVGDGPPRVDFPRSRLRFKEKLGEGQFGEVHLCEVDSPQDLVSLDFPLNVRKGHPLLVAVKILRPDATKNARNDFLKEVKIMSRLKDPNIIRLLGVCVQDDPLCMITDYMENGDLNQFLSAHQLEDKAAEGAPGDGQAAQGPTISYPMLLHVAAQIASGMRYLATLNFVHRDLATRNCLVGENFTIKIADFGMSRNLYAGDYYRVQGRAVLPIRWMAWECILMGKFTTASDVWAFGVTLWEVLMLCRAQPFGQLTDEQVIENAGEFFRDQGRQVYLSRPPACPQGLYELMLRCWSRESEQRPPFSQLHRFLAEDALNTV

| Structure (SMILES) | IC50 (DDR1 protein) | IC50 [1] |
| --- | --- | --- |
| CCc1ccc(C(=O)N[C@H]2C[C@H](OC(F)(F)F)C[C@@H]2O)cc1NC(=O)c1cnc(NCC2CC2)s1 [Example 45, 2-[(Cyclopropylmethyl)amino]-N-(2-ethyl-5-{[(1S,2S,4S)-2-hydroxy-4-(trifluoromethoxy)cyclopentyl]carbamoyl}phenyl)-1,3-thiazole-5-carboxamide] | 1.3 nM | 6.8 nM |
| NC(=O)c1ncc2cc(-c3cc(C(=O)N[C@H]4C[C@H](OC(F)(F)F)C[C@@H]4O)cnc3C(F)(F)F)ccn12 [Example 15, 5-{3-Carbamoylimidazo[1,5-a]pyridin-7-yl}-N-[(1S,2S,4S)-2-hydroxy-4-(trifluoromethoxy)cyclopentyl]-6-(trifluoromethyl)pyridine-3-carboxamide] | 2.2 nM | 14 nM |
| NC(=O)c1ncc2cc(-c3cc(C(=O)N[C@H]4CC(F)(F)CC[C@@H]4O)cnc3C(F)(F)F)ccn12 [Example 41, 5-{3-Carbamoylimidazo[1,5-a]pyridin-7-yl}-N-[(1S,2S)-5,5-difluoro-2-hydroxycyclohexyl]-6-(trifluoromethyl)pyridine-3-carboxamide] | 60 nM | 350 nM |
| COc1cncc(/C=C(\F)c2cc(C(=O)N[C@H]3C[C@H](OC(F)(F)F)C[C@@H]3O)cc(F)c2OC(F)F)c1 [Example 13, 4-(Difluoromethoxy)-3-fluoro-5-[(1Z)-1-fluoro-2-(5-methoxypyridin-3-yl)ethenyl]-N-[(1S,2S,4S)-2-hydroxy-4-(trifluoromethoxy)cyclopentyl]benzamide] | 0.87 nM | 1.9 nM |
| CCc1ccc(C(=O)N[C@H](CO)CCOC(F)(F)F)cc1NC(=O)c1cnc(CC2CC2)s1 [Example 47, 2-(Cyclopropylmethyl)-N-(2-ethyl-5-{[(2S)-1-hydroxy-4-(trifluoromethoxy)butan-2-yl]carbamoyl}phenyl)-1,3-thiazole-5-carboxamide] | 51 nM | 59 nM |
| NC(=O)c1ncc2cc(-c3cc(C(=O)N[C@H]4CC(F)(F)CC[C@@H]4O)ccc3C(F)(F)F)ccn12 [Example 27, 7-(5-{[(1S,2S)-5,5-Difluoro-2-hydroxycyclohexyl]carbamoyl}-2-(trifluoromethyl)phenyl)imidazo[1,5-a]pyridine-3-carboxamide] | 4 nM | 10 nM |
| CCc1ccc(C(=O)N[C@H](CO)CCOC(F)(F)F)cc1NC(=O)c1cnc(NCC2CC2)s1 [Example 44, 2-[(Cyclopropylmethyl)amino]-N-(2-ethyl-5-{[(2S)-1-hydroxy-4-(trifluoromethoxy)butan-2-yl]carbamoyl}phenyl)-1,3-thiazole-5-carboxamide] | 9.4 nM | 15 nM |
| CCc1ccc(C(=O)N[C@H]2C[C@H](OC(F)(F)F)C[C@@H]2O)cc1NC(=O)c1cncc(OCC2CC2)c1 [Example 42, 5-(Cyclopropylmethoxy)-N-(2-ethyl-5-{[(1S,2S,4S)-2-hydroxy-4-(trifluoromethoxy)cyclopentyl]carbamoyl}phenyl)pyridine-3-carboxamide] | 1.6 nM | 54 nM |
| CCc1ccc(C(=O)N[C@H]2C[C@H](OC(F)(F)F)C[C@@H]2O)cc1NC(=O)c1cnc(CC2CC2)s1 [Example 17, 2-(Cyclopropylmethyl)-N-(2-ethyl-5-{[(1S,2S,4S)-2-hydroxy-4-(trifluoromethoxy)cyclopentyl]carbamoyl}phenyl)-1,3-thiazole-5-carboxamide] | 1.6 nM | 17 nM |
| CCc1ccc(C(=O)N[C@H]2C[C@H](OC(F)(F)F)C[C@@H]2O)cc1NC(=O)c1cnc(C2CC2)s1 [Example 46, 2-Cyclopropyl-N-(2-ethyl-5-{[(1S,2S,4S)-2-hydroxy-4-(trifluoromethoxy)cyclopentyl]carbamoyl}phenyl)-1,3-thiazole-5-carboxamide] | 9.1 nM | 44 nM |

Second part, the compound after the results:

| IC50 (DDR1 protein) | IC50 [1] | Structure (SMILES) |
| --- | --- | --- |
| 36 nM | 97 nM | Cn1cc(C#Cc2cc(C(=O)N[C@H](CO)CCOC(F)(F)F)ccc2OC(F)F)cn1 [Example 24, 4-(Difluoromethoxy)-N-[(2S)-1-hydroxy-4-(trifluoromethoxy)butan-2-yl]-3-[2-(1-methyl-1H-pyrazol-4-yl)ethynyl]benzamide] |
| 5.1 nM | 20 nM | Nc1cnc(/C(F)=C/c2cc(C(=O)N[C@H]3CC4(CC4)C[C@@H]3O)ccc2OC(F)F)cn1 [Example 26, 3-[(1Z)-2-(5-Aminopyrazin-2-yl)-2-fluoroethenyl]-4-(difluoromethoxy)-N-[(5S,6S)-6-hydroxyspiro[2.4]heptan-5-yl]benzamide] |
| 7.5 nM | 13 nM | CCc1ccc(C(=O)N[C@H]2C[C@H](OC(F)(F)F)C[C@@H]2O)cc1NC(=O)c1cnc(-c2ccccc2)o1 [Example 16, N-(2-Ethyl-5-{[(1S,2S,4S)-2-hydroxy-4-(trifluoromethoxy)cyclopentyl]carbamoyl}phenyl)-2-phenyl-1,3-oxazole-5-carboxamide] |
| 8.6 nM | 230 nM | Nc1ncc(C#Cc2cc(C(=O)N[C@H](CO)c3ccccc3)ccc2OC(F)F)cn1 [Example 36, 3-[2-(2-Aminopyrimidin-5-yl)ethynyl]-4-(difluoromethoxy)-N-[(1S)-2-hydroxy-1-phenylethyl]benzamide hydrochloride] |
| 68 nM | 240 nM | CCc1ccc(C(=O)N[C@H](CO)CCOC(F)(F)F)cc1NC(=O)c1cncc(OCC2CC2)c1 [Example 43, 5-(Cyclopropylmethoxy)-N-(2-ethyl-5-{[(2S)-1-hydroxy-4-(trifluoromethoxy)butan-2-yl]carbamoyl}phenyl)pyridine-3-carboxamide] |
| 3.6 nM | 38 nM | O=C(N[C@H]1C[C@H](OC(F)(F)F)C[C@@H]1O)c1ccc(OC(F)F)c(C#Cc2cncc(F)c2)c1 [Example 2, 4-(Difluoromethoxy)-3-[2-(5-fluoropyridin-3-yl)ethynyl]-N-[(1S,2S,4S)-2-hydroxy-4-(trifluoromethoxy)cyclopentyl]benzamide] |
| 0.86 nM | 7.8 nM | NC(=O)c1ncc2cc(-c3cc(C(=O)N[C@H]4CC5(CC5)C[C@@H]4O)ccc3C(F)(F)F)ccn12 [Example 28, 7-(5-{[(5S,6S)-6-Hydroxyspiro[2.4]heptan-5-yl]carbamoyl}-2-(trifluoromethyl)phenyl)imidazo[1,5-a]pyridine-3-carboxamide] |
| 0.48 nM | 5.6 nM | Nc1ncc(/C=C(\F)c2cc(C(=O)N[C@H]3CC4(CC4)C[C@@H]3O)ccc2OC(F)F)cn1 [Example 40, 3-[(1Z)-2-(2-Aminopyrimidin-5-yl)-1-fluoroethenyl]-4-(difluoromethoxy)-N-[(5S,6S)-6-hydroxyspiro[2.4]heptan-5-yl]benzamide] |
| 22 nM | 150 nM | O=C(N[C@H]1CC2(CC2)C[C@@H]1O)c1ccc(OC(F)F)c(C#Cc2cncnc2)c1 [Example 18, 4-(Difluoromethoxy)-N-[(5S,6S)-6-hydroxyspiro[2.4]heptan-5-yl]-3-[2-(pyrimidin-5-yl)ethynyl]benzamide] |
| 1.1 nM | 14 nM | Nc1ncc(/C=C(\F)c2cc(C(=O)N[C@H](CO)CCOC(F)(F)F)ccc2OC(F)F)cn1 [Example 12, 3-[(1Z)-2-(2-Aminopyrimidin-5-yl)-1-fluoroethenyl]-4-(difluoromethoxy)-N-[(2S)-1-hydroxy-4-(trifluoromethoxy)butan-2-yl]benzamide] |
| 1.8 nM | 7.4 nM | CCc1ccc(C(=O)N[C@H]2C[C@H](OC(F)(F)F)C[C@@H]2O)cc1NC(=O)c1cncc(-c2cccc(F)c2)c1 [Example 33, N-(2-Ethyl-5-{[(1S,2S,4S)-2-hydroxy-4-(trifluoromethoxy)cyclopentyl]carbamoyl}phenyl)-5-(3-fluorophenyl)pyridine-3-carboxamide] |
| 15 nM | 40 nM | Nc1ncc(/C(F)=C/c2cc(C(=O)N[C@H]3CC(F)(F)CC[C@@H]3O)ccc2OC(F)F)cn1 [Example 37, 3-[(1Z)-2-(2-Aminopyrimidin-5-yl)-2-fluoroethenyl]-N-[(1S,2S)-5,5-difluoro-2-hydroxycyclohexyl]-4-(difluoromethoxy)benzamide] |
| 3.2 nM | 27 nM | O=C(N[C@H]1CC2(CC2)C[C@@H]1O)c1ccc(OC(F)F)c(C#Cc2cncc(F)c2)c1 [Example 19, 4-(Difluoromethoxy)-3-[2-(5-fluoropyridin-3-yl)ethynyl]-N-[(5S,6S)-6-hydroxyspiro[2.4]heptan-5-yl]benzamide] |
| 2.2 nM | 5.3 nM | NC(=O)c1ncc2cc(-c3cc(C(=O)N[C@H](CO)CCOC(F)(F)F)ccc3C(F)(F)F)ccn12 [Example 31, 7-(5-{[(2S)-1-Hydroxy-4-(trifluoromethoxy)butan-2-yl]carbamoyl}-2-(trifluoromethyl)phenyl)imidazo[1,5-a]pyridine-3-carboxamide] |
| 18 nM | 78 nM | NC(=O)c1ncc2cc(-c3cc(C(=O)N[C@H](CO)CCOC(F)(F)F)cnc3C(F)(F)F)ccn12 [Example 30, 5-{3-Carbamoylimidazo[1,5-a]pyridin-7-yl}-N-[(2S)-1-hydroxy-4-(trifluoromethoxy)butan-2-yl]-6-(trifluoromethyl)pyridine-3-carboxamide] |
